*1 amine or outer side, *2 acyl side, *3 side chain or, on linkers, in order; H or OH if unused. Where a SMILES comes first, the peptide text is derived from it. Bridges are numbered along the chain shown (N, C = ends). Side-chain parts run from the residue outwards. [ ]: non-standard residue; d: D form. The star is where a group is joined. Me3N+(CH2)2O(CH2)2O(CH2)2CO = C[N+](C)(C)CCOCCOCCC(=O)*; CH2CH2OCH2CH2OCH2CH2NMe3+ = C[N+](C)(C)CCOCCOCC*; Trp(7-Me) = Cc1cccc2c(C[C@H](N)C(=O)O)c[nH]c12; Abu(4-yl) = O=C([C@H](CC[*:3])N[*:1])[*:2]; C18 diacid = O=C(O)CCCCCCCCCCCCCCCCC(=O)*; γGlu = O=C(O)[C@H](CCC(=O)[*:2])N[*:1]; 2Nal = N[C@@H](Cc1ccc2ccccc2c1)C(=O)O; AEF = NCCOc1ccc(C[C@H](N)C(=O)O)cc1; X2 = C[N+](C)(C)C[C@@H](CC(=O)O)N*; 3Pal = N[C@@H](Cc1cccnc1)C(=O)O; Lys(Me) = CNCCCC[C@H](N)C(=O)O; NMeK = CN[C@@H](CCCCN)C(=O)O; Pen = CC(C)(S)[C@H](N)C(=O)O; Suc = O=C(CCC(=O)[*:2])[*:1]; Lauroyl = CCCCCCCCCCCC(=O)*; αMeC = C[C@](N)(CS)C(=O)O; Thp = NC1(C(=O)O)CCOCC1; X1 = C[N+](C)(C)CCCCC*; AEEA = NCCOCCOCC(=O)O; Sar = CNCC(=O)O
The compounds below were run against T1, IL-23R (Homo sapiens, UniProt Q5VWK5) (assay: IL23R Reporter Assay). Details: HEK293 cells containing IL-23R, IL-12Rβ1 and STAT-inducible firefly luciferase reporter; 10 ng/mL IL-23 (EC90); 5 h.
T1 construct: HEK293 cells containing IL-23R, IL-12Rβ1 and a firefly luciferase reporter gene driven by a STAT-inducible promoter (Promega); host or cells: HEK293
T1 sequence (Q5VWK5 24-629): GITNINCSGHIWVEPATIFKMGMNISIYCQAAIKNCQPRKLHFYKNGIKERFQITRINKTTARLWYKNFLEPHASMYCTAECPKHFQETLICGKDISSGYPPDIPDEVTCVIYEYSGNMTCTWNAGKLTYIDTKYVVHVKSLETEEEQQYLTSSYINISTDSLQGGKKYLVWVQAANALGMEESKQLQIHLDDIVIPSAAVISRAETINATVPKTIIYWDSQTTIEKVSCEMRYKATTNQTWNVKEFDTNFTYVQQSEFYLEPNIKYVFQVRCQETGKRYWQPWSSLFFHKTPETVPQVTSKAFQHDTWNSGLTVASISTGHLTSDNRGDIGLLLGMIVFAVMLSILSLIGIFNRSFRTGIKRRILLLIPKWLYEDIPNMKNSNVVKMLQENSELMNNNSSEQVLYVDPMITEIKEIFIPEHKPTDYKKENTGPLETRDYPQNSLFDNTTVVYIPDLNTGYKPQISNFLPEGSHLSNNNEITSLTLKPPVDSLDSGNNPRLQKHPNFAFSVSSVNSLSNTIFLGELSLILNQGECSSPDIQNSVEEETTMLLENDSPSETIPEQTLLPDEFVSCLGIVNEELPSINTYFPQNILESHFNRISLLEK
Format: cell-based
Experimental: Compounds were serially diluted in 100% (v/v) DMSO) and plated using an Echo acoustic dispenser (Labcyte) into 1536-well non-treated black assay plates (Corning #9146). 3 μL of HEK293 cells containing IL-23R, IL-12Rβ1 and a firefly luciferase reporter gene driven by a STAT-inducible promoter (Promega) were added to the plates (4000 cells/well), followed by 3 μL of 10 ng/mL IL-23 (equivalent to EC90 concentration). After 5 h at 37° C., 5% CO2, 95% relative humidity, cells were placed at 20° C. and treated with BioGlo reagent (Promega) according to the Manufacturer's instructions. Luminescence was measured on a Pherastar FSX (BMG LabTech). Data were normalized to IL-23 treatment (0% inhibition) and 30 μM of control inhibitor (100% inhibition), and IC50 values were determined using a 4-parameter Hill equation.

| Compound | IC50 [nM] |
| --- | --- |
| CC(=O)NCCCC[C@@H]1NC(=O)[C@H](Cc2c[nH]c3c(C)cccc23)NC(=O)[C@H]([C@@H](C)O)NC(=O)[C@H](CCCCNC(=O)CCC(=O)N[C@H](CC(=O)O)C[N+](C)(C)C)NC(=O)[C@@H](NC(=O)[C@@H](CCCNC(=N)N)NC(=O)COCCOCCNC(=O)COCCOCCNC(=O)CC[C@H](NC(=O)CCCCCCCCCCCCCCCCC(=O)O)C(=O)O)C(C)(C)SSC(C)(C)[C@@H](C(=O)N[C@@H](Cc2ccc(OCCN)cc2)C(=O)N[C@@H](Cc2ccc3ccccc3c2)C(=O)NC2(C(=O)N[C@@H](CCC(=O)O)C(=O)N[C@@H](CC(N)=O)C(=O)N[C@@H](Cc3cccnc3)C(=O)N(C)CC(N)=O)CCOCC2)NC1=O [compound 47, HOC18gEPEG2PEG2CO-r-Pen(3)-K(d)-T-7MeW-K(Ac)-Pen(3)-AEF-2Nal-THP-E-N-3Pya-Sar-CONH2] ({C18 diacid-γGlu-AEEA-AEEA}-[dR][Pen]K([Suc-X2])T[Trp(7-Me)]K(Ac)[Pen][AEF][2Nal][Thp]EN[3Pal][Sar]-NH2; disulfide 2-7) | < 50 |
| CC(=O)NCCCC[C@@H]1NC(=O)[C@H](Cc2c[nH]c3c(C)cccc23)NC(=O)[C@H]([C@@H](C)O)NC(=O)[C@H](CC(N)=O)NC(=O)[C@@H](NC(=O)[C@@H](CCCNC(=N)N)NC(C)=O)C(C)(C)SSC(C)(C)[C@@H](C(=O)N[C@@H](Cc2ccc(OCCCCC[N+](C)(C)C)cc2)C(=O)N[C@@H](Cc2ccc3ccccc3c2)C(=O)NC2(C(=O)N[C@@H](CCC(=O)O)C(=O)N[C@@H](CC(N)=O)C(=O)N[C@@H](Cc3cccnc3)C(=O)N(C)CC(=O)N[C@@H](CCCCNC(=O)COCCOCCNC(=O)COCCOCCNC(=O)CC[C@H](NC(=O)CCCCCCCCCCCCCCCCC(=O)O)C(=O)O)C(N)=O)CCOCC2)NC1=O [compound 69, MeCO-r-Pen(3)-N-T-7MeW-K(Ac)-Pen(3)-TMAPF-2Nal-THP-E-N-3Pya-Sar-K(PEG2PEG2C18OH)-CONH2] (Ac-[dR][Pen]NT[Trp(7-Me)]K(Ac)[Pen]Y(X1)[2Nal][Thp]EN[3Pal][Sar]K([AEEA-AEEA-γGlu-C18 diacid])-NH2; disulfide 2-7) | 50 to 500 |
| CC(=O)N(C)CCCC[C@@H]1NC(=O)[C@H](Cc2c[nH]c3c(C)cccc23)NC(=O)[C@H]([C@@H](C)O)NC(=O)[C@H](CC(=O)N(C)C)NC(=O)[C@@H](NC(=O)COCCOCCNC(=O)COCCOCCNC(=O)CC[C@H](NC(=O)CCCCCCCCCCCCCCCCC(=O)O)C(=O)O)C(C)(C)SSC(C)(C)[C@@H](C(=O)N[C@@H](Cc2ccc(OCCOCCOCC[N+](C)(C)C)cc2)C(=O)N[C@@H](Cc2ccc3ccccc3c2)C(=O)NC2(C(=O)N[C@@H](CCCCN(C)C(C)=O)C(=O)N[C@@H](CC(N)=O)C(=O)N[C@@H](Cc3cccnc3)C(=O)N(C)CC(=O)N(C)C)CCOCC2)NC1=O [compound 155, HOC18gEPEG2PEG2CO-Pen(3)-N(N(Me)2)-T-7MeW-K(NMeAc)-Pen(3)-APEG3F-2Nal-THP-K(NMeAc)-N-3Pya-Sar-CON(Me)2] ({C18 diacid-γGlu-AEEA-AEEA}-[Pen]D(NMe2)T[Trp(7-Me)][Lys(Me)](Ac)[Pen]Y(CH2CH2OCH2CH2OCH2CH2NMe3+)[2Nal][Thp][Lys(Me)](Ac)N[3Pal][Sar]-NMe2; disulfide 1-6) | < 50 |
| CC(=O)N(C)CCCC[C@@H]1NC(=O)[C@H](Cc2c[nH]c3c(C)cccc23)NC(=O)[C@H]([C@@H](C)O)NC(=O)[C@H](CC(=O)N(C)C)NC(=O)[C@@H](NC(=O)[C@H](CCCCNC(=O)COCCOCCNC(=O)COCCOCCNC(=O)CC[C@H](NC(=O)CCCCCCCCCCCCCCCCC(=O)O)C(=O)O)NC(=O)CCOCCOCC[N+](C)(C)C)C(C)(C)SSC(C)(C)[C@@H](C(=O)N[C@@H](Cc2ccc(OCCN)cc2)C(=O)N[C@@H](Cc2ccc3ccccc3c2)C(=O)NC2(C(=O)N[C@@H](CCCCN(C)C(C)=O)C(=O)N[C@@H](CC(N)=O)C(=O)N[C@@H](Cc3cccnc3)C(=O)N(C)CC(N)=O)CCOCC2)NC1=O [compound 68, cPEG3aCO-K(PEG2PEG2gEC18OH)-Pen(3)-N(N(Me)2)-T-7MeW-K(NMeAc)-Pen(3)-AEF-2Nal-THP-K(NMeAc)-N-3Pya-Sar-CONH2] ({Me3N+(CH2)2O(CH2)2O(CH2)2CO}-K([AEEA-AEEA-γGlu-C18 diacid])[Pen]D(NMe2)T[Trp(7-Me)][Lys(Me)](Ac)[Pen][AEF][2Nal][Thp][Lys(Me)](Ac)N[3Pal][Sar]-NH2; disulfide 2-7) | ≥ 500 |
| CC(=O)N[C@H](CCCNC(=N)N)C(=O)N[C@@H]1C(=O)N[C@@H](CC(N)=O)C(=O)N[C@@H]([C@@H](C)O)C(=O)N[C@@H](Cc2c[nH]c3c(C)cccc23)C(=O)N[C@@H](CCCCNC(=O)CCC(=O)N[C@H](CC(=O)O)C[N+](C)(C)C)C(=O)N[C@H](C(=O)N[C@@H](Cc2ccc(OCCN)cc2)C(=O)N[C@@H](Cc2ccc3ccccc3c2)C(=O)NC2(C(=O)N[C@@H](CCC(=O)O)C(=O)N[C@@H](CC(N)=O)C(=O)N[C@@H](Cc3cccnc3)C(=O)N(C)[C@@H](CCCCNC(=O)COCCOCCNC(=O)COCCOCCNC(=O)CC[C@H](NC(=O)CCCCCCCCCCCCCCCCC(=O)O)C(=O)O)C(N)=O)CCOCC2)C(C)(C)SSC1(C)C [compound 29, MeCO-r-Pen(3)-N-T-7MeW-K(D)-Pen(3)-AEF-2Nal-THP-E-N-3Pya-NMeK(PEG2PEG2gEC18OH)-CONH2] (Ac-[dR][Pen]NT[Trp(7-Me)]K([Suc-X2])[Pen][AEF][2Nal][Thp]EN[3Pal][NMeK]([AEEA-AEEA-γGlu-C18 diacid])-NH2; disulfide 2-7) | 50 to 500 |
| CCCCCCCCCCCC(=O)N[C@@H](CCC(=O)NCCOCCOCC(=O)NCCOCCOCC(=O)N[C@H](CCCNC(=N)N)C(=O)N[C@H]1CCSC[C@@](C)(C(=O)N[C@@H](Cc2ccc(OCCN)cc2)C(=O)N[C@@H](Cc2ccc3ccccc3c2)C(=O)NC2(C(=O)N[C@@H](CCC(=O)O)C(=O)N[C@@H](CC(N)=O)C(=O)N[C@@H](Cc3cccnc3)C(=O)N(C)CC(N)=O)CCOCC2)NC(=O)[C@H](CCCCNC(C)=O)NC(=O)[C@H](Cc2c[nH]c3c(C)cccc23)NC(=O)[C@H]([C@@H](C)O)NC(=O)[C@H](CC(N)=O)NC1=O)C(=O)O [compound 6, C12gEPEG2PEG2CO-r-Abu(1)-N-T-7MeW-K(Ac)-aMeC(1)-AEF-2Nal-THP-E-N-ePya-Sar CONH2] ({Lauroyl-γGlu-AEEA-AEEA}-[dR][Abu(4-yl)]NT[Trp(7-Me)]K(Ac)[αMeC][AEF][2Nal][Thp]EN[3Pal][Sar]-NH2; thioether 2-7) | < 50 |
| CC(=O)NCCCC[C@@H]1NC(=O)[C@H](Cc2c[nH]c3c(C)cccc23)NC(=O)[C@H]([C@@H](C)O)NC(=O)[C@H](CC(N)=O)NC(=O)[C@@H](NC(C)=O)C(C)(C)SSC(C)(C)[C@@H](C(=O)N[C@@H](Cc2ccc(OCCN)cc2)C(=O)N[C@@H](Cc2ccc3ccccc3c2)C(=O)NC2(C(=O)N[C@@H](CCC(=O)O)C(=O)N[C@@H](CC(N)=O)C(=O)N[C@@H](Cc3cccnc3)C(=O)N(C)CC(=O)N[C@@H](CCCCNC(=O)COCCOCCNC(=O)COCCOCCNC(=O)CC[C@H](NC(=O)CCCCCCCCCCCCCCCCCCC(=O)O)C(=O)O)C(=O)NCCOCCOCC[N+](C)(C)C)CCOCC2)NC1=O [compound 93, MeCO-Pen(3)-N-T-7MeW-K(Ac)-Pen(3)-AEF-2Nal-THP-K(Ac)-N-3Pya-Sar-K(PEG2PEG2gEC20OH)-CONH(PEG3a)] | 50 to 500 |
| CC(=O)NCCCC[C@@H]1NC(=O)[C@H](Cc2c[nH]c3c(C)cccc23)NC(=O)[C@H]([C@@H](C)O)NC(=O)[C@H](CC(N)=O)NC(=O)[C@@H](NC(C)=O)C(C)(C)SSC(C)(C)[C@@H](C(=O)N[C@@H](Cc2ccc(OCCN)cc2)C(=O)N[C@@H](Cc2ccc3ccccc3c2)C(=O)NC2(C(=O)N[C@@H](CCC(=O)O)C(=O)N[C@@H](CC(N)=O)C(=O)N[C@@H](Cc3cccnc3)C(=O)N(C)CC(=O)NCCOCCOCCOCCOCCOCCOCCOCCOCCOCCOCCOCCOCCNC(=O)CC[C@H](NC(=O)CCCCCCCCCCCCCCCCC(=O)O)C(=O)O)CCOCC2)NC1=O [compound 135, MeCO-Pen(3)-N-T-7MeW-K(Ac)-Pen(3)-AEF-2Nal-THP-E-N-3Pya-Sar-CO(PEG12gEC18OH)] | 50 to 500 |
| CCCCCCCCCCCCCC(=O)N(C)CC(=O)N[C@@H](CO)C(=O)N(C)CC(=O)N[C@@H](CO)C(=O)N(C)CC(=O)N[C@@H](CO)C(=O)N(C)CC(=O)NCCCC[C@H](NC(=O)CN(C)C(=O)[C@H](Cc1cccnc1)NC(=O)[C@H](CC(N)=O)NC(=O)[C@H](CCC(=O)O)NC(=O)C1(NC(=O)[C@H](Cc2ccc3ccccc3c2)NC(=O)[C@H](Cc2ccc(OCCN)cc2)NC(=O)C2NC(=O)[C@H](CCCCNC(C)=O)NC(=O)[C@H](Cc3c[nH]c4c(C)cccc34)NC(=O)[C@H]([C@@H](C)O)NC(=O)[C@H](CC(N)=O)NC(=O)[C@@H](NC(C)=O)C(C)(C)SSC2(C)C)CCOCC1)C(N)=O (stereo partly drawn) [compound 1, MeCO-Pen(3)-N-T-7MeW-K(Ac)-Pen(3)-AEF-2Nal-THP-E-N-3Pya-Sar-K(Sar-S-Sar-S-Sar-S-Sar-C14)-CONH2] | < 50 |

Reference: patent US20260250320A1, “LIPIDATED PEPTIDE INHIBITORS OF INTERLEUKIN-23 RECEPTOR” (Janssen Pharmaceutica NV, priority 2023, published 2026)
